Common to all, as to format: in vivo, Swiss Albino mice
One test relates to Th17. Nature of the test: Th17 cells by flow cytometry after 28 days oral treatment. As for the experimental part:
(§1) Sixteen 8-week-old male Swiss Albino mice were housed in an animal room at a constant temperature (22±3° C.) and humidity (30-70%) under a 12:12 h light-dark cycle with standard laboratory diet (Purina 5L79, Rat and Mouse 18% protein; PMI Nutrition International, Brentwood, MO, USA). Distilled water was provided ad libitum. All animal experiments were reviewed and approved by the Institutional Animal Ethical Committee (IAEC) of Radiant Research Services Pvt. Ltd. (Bangalore, India). All research was conducted in accordance with the guidelines of the committee for the purpose of control and supervision of experiments on animals.
(§2) After one week of acclimation, the animals were randomly divided by body weight into two groups (n=8 per group in each test) for oral treatment once a day, at approximately the same time each day (±1 h), for 28 consecutive days: (1) vehicle control; (2) paraxanthine. The dose administered to the mice was calculated using US Food and Drug Administration for human equivalence doses (HED), assuming a human weight of 60 kg. The following HED were used in this study: 100 mg paraxanthine, (ENFINITY™, Ingenious Ingredients, L.P Lewisville, TX, USA; mouse dose: 20.5 mg/kg bw/day). […]
For orientation: Flow cytometry measures light scatter and fluorescence of single cells or particles in a stream.

The test system of the next test is Tfh. As to the kind of experiment: Tfh cells by flow cytometry after 28 days oral treatment. Here is the method: as §1, §2
Another test relates to IL-6. As to the kind of experiment: Serum IL-6 by ELISA after 28 days oral treatment with treadmill exercise training. Here is the method: as §1
(§3) After one week of acclimation, the animals were randomly divided by body weight into two groups (n=8 per group in each test) for oral treatment once a day, at approximately the same time each day (±1 h), for 28 consecutive days: (1) vehicle control; (2) paraxanthine. The dose administered to the mice was calculated using US Food and Drug Administration for human equivalence doses (HED), assuming a human weight of 60 kg. The following HED were used in this study: 100 mg paraxanthine, (ENFINITY™, Ingenious Ingredients, L.P Lewisville, TX, USA; mouse dose: 20.5 mg/kg bw/day).
(§4) During the treatment period, exercise training was completed using a motorized treadmill (Exer 3/6, Columbus Instruments international, Columbus, OH, USA) at a moderate intensity of 20 cm/sec as maximal running speed, an incline of 10 degrees and a shock intensity of 0.2 mA, for 10 min. The speed of the treadmill was manually adjusted by increasing the belt speed by 5 cm/sec every 2 min throughout the total duration of 10 min. All animals were adapted to this procedure daily 60 min after dosing for 5 days in a week during the treatment period.
(§5) On 29th day, blood was collected from retro-orbital route for biochemical analysis. IL-2, IL-6, IL-10, assay was done by using standard ELISA assay kit method. The Tfh,/iTreg assay was done by using flow cytometry method.
(ELISA stands for enzyme-linked immunosorbent assay.)

The test system of another test is C-reactive protein (CRP). Nature of the test: Blood C-reactive protein after 28 days oral treatment with treadmill exercise training. Here is the method:
as §1, §3, §4, §5

The test system of a further test is IL-2. As to the kind of experiment: Serum IL-2 by ELISA after 28 days oral treatment with treadmill exercise training. As for the experimental part: as §1, §3, §4, §5
The test system of another test is Th2. As to the kind of experiment: Th2 cells by flow cytometry after 28 days oral treatment. As for the experimental part: as §1, §2
The test system of another test is Th1. As to the kind of experiment: Th1 cells by flow cytometry after 28 days oral treatment. As for the experimental part:
as §1, §2

For another test, the system named is iTreg. Nature of the test: iTreg cells by flow cytometry after 28 days oral treatment. As for the experimental part: as §1, §2
Another test deals with IL-10. As to the kind of experiment: Serum IL-10 by ELISA after 28 days oral treatment with treadmill exercise training. As for the experimental part: as §1, §3, §4, §5
Where [1] appears, read: mice, 28 days oral, versus control.

Turning to `Cn1c(=O)[nH]c2ncn(C)c2c1=O` [Paraxanthine, 1,7-dimethyl-3H-purine-2,6-dione], in the test on Th17 (change versus control, day 29), the “Delta Th17” value is on record as “+758.4%”. In addition, in the test on Th17 (mice, oral 20.5 mg/kg bw/day 28 days, blood on day 29, control 3.65 ± 0.85), the “Th17 (%)” value is recorded as 31.33 ± 1.31 %. Besides, the “Delta Tfh” value in the test on Tfh (change versus control, day 29) was “+602.8%”. Also, the “Tfh (%)” value in the test with Tfh (mice, oral 20.5 mg/kg bw/day 28 days, blood on day 29, control 7.82 ± 1.04) amounted to 54.96 ± 4.44 %. Moreover, in the test with IL-6 (change versus control, day 29), the “Delta IL-6” value was −7.7%. In addition, the “effect on pro-inflammatory cytokine IL-6 (in words)” value in the test on IL-6 (setting [1]) was “reduced”. Moreover, in the test on IL-6 (mice, oral once daily 28 days (paraxanthine 20.5 mg/kg bw/day), blood on day 29, control 369.04 ± 13), the “IL-6 (pg/ml) Pro-inflammatory” value stood at 340.6 ± 13.6 pg/mL. For the same compound, the “Delta CRP” value in the test on C-reactive protein (CRP) (change versus control, day 29) is −18.3%. In the test with C-reactive protein (CRP) (setting [1]), the “effect on C-reactive protein (CRP) (in words)” value was “reduced”. In the test on C-reactive protein (CRP) (mice, oral once daily 28 days (paraxanthine 20.5 mg/kg bw/day), blood on day 29, control 0.77 ± 0.09), the “CRP (mg/L) Inflammation” value is listed as 0.64 ± 0.07 mg/L. The “Delta IL-2” value with IL-2 (change versus control, day 29) was “+23.1%”. The “effect on IL-2 (in words)” value in the test on IL-2 (setting [1]) is recorded as “increased”. Further, the “IL-2 (ng/L) Adaptive Immunity” value with IL-2 (mice, oral once daily 28 days (paraxanthine 20.5 mg/kg bw/day), blood on day 29, control 37.29 ± 1.88) is 45.91 ± 2.68 ng/L. Also, the “Delta Th2” value in the test with Th2 (change versus control, day 29) is reported as “+368.0%”. Also, in the test on Th2 (mice, oral 20.5 mg/kg bw/day 28 days, blood on day 29, control 11.46 ± 3.16), the “Th2 (%)” value is recorded as 53.63 ± 3.85 %. In addition, the “Delta Th1” value with Th1 (change versus control, day 29) was −29.8%. In addition, the “Th1 (%)” value with Th1 (mice, oral 20.5 mg/kg bw/day 28 days, blood on day 29, control 93.54 ± 2.82) is reported as 65.68 ± 3.98 %. Besides, in the test with iTreg (change versus control, day 29), the “Delta iTreg” value was −56.5%. The “iTreg (%)” value with iTreg (mice, oral 20.5 mg/kg bw/day 28 days, blood on day 29, control 54.47 ± 4.2) was 23.68 ± 2.62 %. The “Delta IL-10” value in the test with IL-10 (change versus control, day 29) is listed as “+8.3%”. Further, the “effect on anti-inflammatory cytokine IL-10 (in words)” value in the test with IL-10 (setting [1]) is “increased”. The “IL-10 (pg/ml) Anti-inflammatory” value with IL-10 (mice, oral once daily 28 days (paraxanthine 20.5 mg/kg bw/day), blood on day 29, control 527.86 ± 9.22) amounted to 571.71 ± 16.43 pg/mL.

These data come from US20240033269A1, “PPARAXANTHINE-BASED COMPOSITIONS FOR INHIBITING INFLAMMATION, IMPROVING JOINT HEALTH, AND ENHANCING IMMUNE FUNCTION” (PX ING, LLC, priority 2022, published 2024).
